Reference: PubChem BioAssay (NCI)
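Step 1: Grow cells in 96-well plates. Step 2: Expose to compound for 48 hours at 5 concentrations. Step 3: Interpolate endpoints linearly; if unreached, use highest concentration. Definition used: TGI = concentration required for complete inhibition of growth.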

Key:
Assay in all cases: growth of human tumour cells (NCI), 48 h
[1] = test system: LOX IMVI melanoma
[2] = test system: CCRF-CEM leukemia
[3] = test system: MCF7 breast
[4] = test system: SF-295 CNS
[5] = test system: BT-549 breast
[6] = test system: SR leukemia
[7] = test system: SK-MEL-28 melanoma
[8] = test system: NCI-H23 lung
[9] = test system: SK-MEL-5 melanoma
[10] = test system: EKVX NSCLC
[11] = test system: RPMI-8226 leukemia
[12] = test system: M14 melanoma
[13] = test system: COLO 205 colon
[14] = test system: A498 renal
[15] = test system: HT29 colon
[16] = test system: UACC-62 melanoma
[17] = test system: ACHN renal
[18] = test system: IGROV1 ovarian
[19] = test system: OVCAR-8 ovarian
[20] = test system: DU-145 prostate
[21] = test system: MOLT-4 leukemia
[22] = test system: CAKI-1 renal
[23] = test system: HOP-92 NSCLC
[24] = test system: NCI-H460 lung
[25] = test system: MALME-3M melanoma
[26] = test system: HCT-116 colon
[27] = test system: HCC-2998 colon
[28] = test system: NCI-H522 lung
[29] = test system: SNB-75 CNS
[30] = test system: MDA-MB-435
[31] = test system: NCI-H226 lung
[32] = test system: SNB-19 CNS
[33] = test system: UO-31 renal
[34] = test system: HOP-62 NSCLC
[35] = test system: 786-0 renal
[36] = test system: NCI/ADR-RES ovarian
[37] = test system: TK-10 renal
[38] = test system: OVCAR-4 ovarian
[39] = test system: SK-MEL-2 melanoma
[40] = test system: OVCAR-5 ovarian
[41] = test system: SF-268 CNS
[42] = test system: KM12 colon
[43] = test system: SF-539 CNS
[44] = test system: HS 578T breast
[45] = test system: HCT-15 colon
[46] = test system: SW-620 colon
[47] = test system: UACC-257 melanoma
[48] = test system: PC-3 prostate
[49] = test system: SN12C renal
[50] = test system: A549 NSCLC
[51] = test system: OVCAR-3 ovarian
[52] = test system: MDA-N
[53] = test system: MDA-MB-231 breast
[54] = test system: U251 CNS
[55] = test system: K-562 leukemia
[56] = test system: SK-OV-3 ovarian
[57] = test system: HL-60(TB) leukemia
[58] = test system: RXF 393 renal
[59] = test system: T-47D breast

Measured: TGI

CC1CCCOc2ccc(cc2)C=Nc2ccc(cc2)CCc2ccc(cc2)N=Cc2ccc(cc2)OCCC1 (centres undefined)
> 100 µM: [1] | [2] | [3] | [4] | [5] | [6] | [7] | [8] | [9] | [10] | [11] | [12] | [13] | [14] | [15] | [16] | [17] | [18] | [19] | [20] | [21] | [22] | [23] | [24] | [25] | [26] | [27] | [28] | [29] | [30] | [31] | [32] | [33] | [34] | [35] | [36] | [37] | [38] | [39] | [40] | [41] | [42] | [43] | [44] | [45] | [46] | [47] | [48] | [49] | [50] | [51] | [52] | [53] | [54] | [55]

COC(=O)c1ccccc1C1CN=NC12Cc1c(C)cc(C)cc1C2=O (centres undefined)
> 100 µM: [1] | [2] | [3] | [4] | [5] | [7] | [8] | [9] | [10] | [12] | [13] | [56] | [14] | [15] | [16] | [17] | [18] | [19] | [20] | [21] | [22] | [23] | [24] | [25] | [57] | [26] | [27] | [28] | [58] | [29] | [30] | [31] | [32] | [33] | [34] | [35] | [36] | [37] | [38] | [59] | [39] | [40] | [41] | [42] | [43] | [44] | [45] | [46] | [47] | [48] | [49] | [50] | [51] | [52] | [53] | [54] | [55]

Cc1cc(Cl)nc(NC(=O)CSc2ccc(Cl)cc2)n1
> 100 µM: [1] | [2] | [4] | [5] | [6] | [7] | [8] | [9] | [10] | [11] | [12] | [14] | [15] | [16] | [17] | [18] | [19] | [20] | [21] | [23] | [24] | [25] | [57] | [26] | [27] | [28] | [58] | [30] | [31] | [32] | [33] | [34] | [35] | [36] | [37] | [59] | [39] | [40] | [41] | [42] | [44] | [45] | [46] | [47] | [48] | [49] | [50] | [51] | [52] | [53] | [54] | [55]

COc1ccc(NC(=O)C(=O)C(CC2C(=O)NC(=S)NC2=O)C(=O)c2ccc3ccccc3c2)c([N+](=O)[O-])c1 (centres undefined)
> 100 µM: [1] | [2] | [3] | [4] | [5] | [7] | [8] | [9] | [10] | [11] | [12] | [13] | [56] | [14] | [15] | [16] | [17] | [18] | [19] | [20] | [21] | [22] | [23] | [24] | [57] | [26] | [27] | [28] | [29] | [30] | [31] | [32] | [33] | [35] | [36] | [37] | [38] | [59] | [39] | [40] | [41] | [42] | [43] | [44] | [45] | [46] | [47] | [48] | [49] | [50] | [51] | [52] | [53] | [54] | [55]
